23 compounds from patent US20150266878A1, “NOVEL BI-RING PHENYL-PYRIDINES/PYRAZINES FOR THE TREATMENT OF CANCER” (HOFFMANN-LA ROCHE INC., priority 2012, published 2015) can be followed below.

As usually defined, the IC50 is the concentration that inhibits the measured activity by half. High values mean weaker potency, low ones greater potency.

Experiment [1] addresses T1, CDK8/Cyclin C (Homo sapiens, UniProt P49336).
T1 construct: purchased Invitrogen PV4402
Put plainly: CDK8/Cyclin C LANCE TR-FRET kinase assay. The conditions noted are these: CDK8/Cyclin C 10 nM, ATP 24 μM, Ulight-GS peptide 80 nM, 37° C. 30 mins. In kind it is biochemical. The source says: CDK8/Cyclin C LANCE TR-FRET Kinase Assay:
The biological activity of the compounds of the invention can be determined using the assay described below.
CDK8/Cyclin C protein was obtained from Invitrogen, cat #PV4402. ULight-Glycogen Synthase (Ulight-GS) peptide with sequence PASVPPSPSLSRHSSPHQ(pS)ED, and Europium-anti-phospho Glycogen Synthase (Ser641) [Eu-anti-P-GS (Ser641)] were obtained from Perkin Elmer, cat #TRF0131-M and cat #TRF0220. Adenosine-5′-triphosphate (ATP) was obtained from Invitrogen, cat #PV3227.
A mixture of (1) a compound of formula I, (2) substrate [Ulight-GS peptide (80 nM) and ATP (24 μM)], and (3) CDK8/Cyclin C (10 nM) in reaction buffer (50 mM Hepes, pH7.0, 10 mM MgCl2, 1 mM EGTA, 0.2 mg/mL BSA, 0.8 mM DTT) were incubated at 37° C. for 30 mins. Then, [Eu-anti-P-GS (Ser641)] (1.5 nM) was added. Following incubation at room temperature for 30 mins, the TR-FRET signals were detected using Envision reader (Ex 340 nm, Em 615 nm and 665 nm) from Perkin Elmer. The reactivity in percentage of inhibition or dose response was analyzed with GraphPad Prism 5 (GraphPad Software).

Experiment [2] relates to HCT116 (colorectal cancer). Put plainly: In vitro cell proliferation assay (CCK-8), HCT116. Particulars: Homo sapiens, HCT-116, HCT116 cells, 72 hours. The class given is cell-based. Here is the method:
(§1) In Vitro Cell Proliferation Assay:
(§2) Cells were seeded on 96-well plates at 5×10^3 cells per well and precultured for 24 hours. The cells were treated with serial diluted compounds and cultured for 72 hours. Then all media was discarded and after that, 100 μL 1:10 (v/v) Cell Counting Kit-8 (CCK-8)-culture media solution was added to the wells. Plate was developed for 2 hours in an incubator, and the absorbance was measured at 450 nm wavelengths with SpectraMAX190 (MDS, Sunnyvale, Calif.). The inhibition rate (IR) of the tested compounds was determined with following formula: IR (%)=(ODDMSO−ODcompound)/ODDMSO×100%. The concentration corresponding to 50% IR (IC50) was determined with plot curve of IR against tested compound concentrations with SoftMax Pro.

In experiment [3] the test system is SW-837 (colorectal cancer). As to the kind of experiment: In vitro cell proliferation assay (CCK-8), SW-837. The class given is cell-based. The conditions noted are these: Homo sapiens, SW837, SW-837 cells, 72 hours. Here is the method: as §1, §2
In experiment [4] the test system is AGS (gastric cancer). As to the kind of experiment: In vitro cell proliferation assay (CCK-8), AGS. The class given is cell-based. Particulars: Homo sapiens, AGS cells, 72 hours. On the procedure:
as §1, §2

T1 sequence (P49336 whole entry): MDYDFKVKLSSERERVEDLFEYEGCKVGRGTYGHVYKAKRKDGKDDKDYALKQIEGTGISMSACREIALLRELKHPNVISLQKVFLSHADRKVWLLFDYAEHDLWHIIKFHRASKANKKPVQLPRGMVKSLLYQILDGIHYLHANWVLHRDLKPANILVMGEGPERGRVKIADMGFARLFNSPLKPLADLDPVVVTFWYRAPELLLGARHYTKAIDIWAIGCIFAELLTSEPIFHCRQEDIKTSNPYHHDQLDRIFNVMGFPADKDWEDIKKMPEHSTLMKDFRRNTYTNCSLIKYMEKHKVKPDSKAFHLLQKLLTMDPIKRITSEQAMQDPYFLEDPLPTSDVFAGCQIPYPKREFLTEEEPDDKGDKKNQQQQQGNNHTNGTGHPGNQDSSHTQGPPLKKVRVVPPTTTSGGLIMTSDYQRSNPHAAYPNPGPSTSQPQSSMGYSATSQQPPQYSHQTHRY
T1 sequence (P24863 whole entry partner): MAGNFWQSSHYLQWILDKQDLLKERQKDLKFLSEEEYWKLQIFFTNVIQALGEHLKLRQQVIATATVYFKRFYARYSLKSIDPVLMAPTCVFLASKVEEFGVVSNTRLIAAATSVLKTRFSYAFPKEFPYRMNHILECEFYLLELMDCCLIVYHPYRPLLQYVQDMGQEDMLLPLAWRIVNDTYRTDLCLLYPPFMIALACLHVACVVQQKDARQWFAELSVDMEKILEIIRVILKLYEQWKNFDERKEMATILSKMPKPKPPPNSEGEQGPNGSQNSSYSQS

As to `O=C1Cc2cc(-c3cncc(N[C@@H](CO)c4ccccc4)c3)ccc2N1` [Example 1, 5-[5-((R)-2-Hydroxy-1-phenyl-ethylamino)-pyridin-3-yl]-1,3-dihydro-indol-2-one], the IC50 in experiment [1] came to 3.5 nM; in experiment [2] it was 0.66 µM; in experiment [3], 2.3 µM; in experiment [4], 0.65 µM.
For `OC[C@H](Nc1cncc(-c2ccc3[nH]ncc3c2)c1)c1ccccc1` [Example 16, (R)-2-[5-(1H-Indazol-5-yl)-pyridin-3-ylamino]-2-phenyl-ethanol], the IC50 in experiment [1] came out at 0.2 nM; in experiment [2], 0.037 µM; in experiment [3], 0.091 µM; in experiment [4] it was 0.033 µM.
In experiment [1], `CC(=O)NC[C@H](Nc1cncc(-c2ccc3[nH]ncc3c2)c1)c1ccccc1` [Example 40, N-{(R)-2-[5-(1H-Indazol-5-yl)-pyridin-3-ylamino]-2-phenyl-ethyl}-acetamide] displayed an IC50 of 1.8 nM.
On the same count and under the same terms, the value for `CS(=O)(=O)NC[C@H](Nc1cncc(-c2ccc3[nH]ncc3c2)c1)c1ccccc1` [Example 41, N-{(R)-2-[5-(1H-Indazol-5-yl)-pyridin-3-ylamino]-2-phenyl-ethyl}-methanesulfonamide] was 0.3 nM.
Same read-out and setting: for `NC(=O)C(Nc1cncc(-c2ccc3[nH]nc(F)c3c2)c1)c1ccccc1` (centres unmarked) [Example 42, 2-[5-(3-Fluoro-1H-indazol-5-yl)-pyridin-3-ylamino]-2-phenyl-acetamide] the value was 3.5 nM.
On the same count and under the same terms, the value for `CCC(=O)NC[C@H](Nc1cncc(-c2ccc3[nH]nc(F)c3c2)c1)c1ccccc1` [Example 43, N-{(R)-2-[5-(3-Fluoro-1H-indazol-5-yl)-pyridin-3-ylamino]-2-phenyl-ethyl}-propionamide] was 2.3 nM; that for `CC(C)C(=O)NC[C@H](Nc1cncc(-c2ccc3[nH]nc(F)c3c2)c1)c1ccccc1` [Example 44, N-{(R)-2-[5-(3-Fluoro-1H-indazol-5-yl)-pyridin-3-ylamino]-2-phenyl-ethyl}-isobutyramide] was 3.1 nM.
In the case of `COCCNC[C@H](Nc1cncc(-c2ccc3[nH]nc(F)c3c2)c1)c1ccccc1` [Example 45, (R)-N^1-[5-(3-Fluoro-1H-indazol-5-yl)-pyridin-3-yl]-N^2-(2-methoxy-ethyl)-1-phenyl-ethane-1,2-diamine], the IC50 in experiment [1] came to 29.5 nM.
Consider `O=C(CO)NC[C@H](Nc1cncc(-c2ccc3[nH]nc(F)c3c2)c1)c1ccccc1` [Example 46, N-{(R)-2-[5-(3-Fluoro-1H-indazol-5-yl)-pyridin-3-ylamino]-2-phenyl-ethyl}-2-hydroxy-acetamide], for which, in experiment [1], the IC50 was determined as 2.4 nM.
The compound `OCCNC[C@H](Nc1cncc(-c2ccc3[nH]nc(F)c3c2)c1)c1ccccc1` [Example 47, 2-{(R)-2-[5-(3-Fluoro-1H-indazol-5-yl)-pyridin-3-ylamino]-2-phenyl-ethylamino}-ethanol] yielded an IC50 in experiment [1] of 15 nM. This IC50 is about 6.2-fold higher than that of the compound before.
For the compound `Cc1n[nH]c2ccc(-c3cncc(N[C@@H](C(N)=O)c4ccccc4)c3)cc12` [Example 48, (R)-2-[5-(3-Methyl-1H-indazol-5-yl)-pyridin-3-ylamino]-2-phenyl-acetamide], it took 1.6 nM to reach half-maximal inhibition in experiment [1] (IC50). This IC50 is about 9.4-fold lower than that of the compound before.
In turn, `Cc1n[nH]c2ccc(-c3cncc(N[C@H](C(N)=O)c4ccccc4)c3)cc12` [Example 49, (S)-2-[5-(3-Methyl-1H-indazol-5-yl)-pyridin-3-ylamino]-2-phenyl-acetamide] registered a 50% inhibitory concentration (IC50) in experiment [1] of 4.2 nM.
Consider `Cc1n[nH]c2ccc(-c3cncc(NC(CNS(C)(=O)=O)c4ccccc4)c3)cc12` (centres unmarked) [Example 50, N-{2-[5-(3-Methyl-1H-indazol-5-yl)-pyridin-3-ylamino]-2-phenyl-ethyl}-methanesulfonamide], for which the IC50 in experiment [1] was found to be 2.8 nM.
In experiment [1], `Cc1n[nH]c2ccc(-c3cncc(N[C@@H](CNS(=O)(=O)C4CC4)c4ccccc4)c3)cc12` [Example 51, Cyclopropanesulfonic acid {(R)-2-[5-(3-methyl-1H-indazol-5-yl)-pyridin-3-ylamino]-2-phenyl-ethyl}-amide] yielded an IC50 of 2.1 nM.
The same measure, in the same setting: the value for `Cc1n[nH]c2ccc(-c3cncc(N[C@@H](CNS(C)(=O)=O)c4ccccc4)c3)cc12` [Example 52, N-{(R)-2-[5-(3-Methyl-1H-indazol-5-yl)-pyridin-3-ylamino]-2-phenyl-ethyl}-methanesulfonamide] was 0.8 nM; that for `COCCS(=O)(=O)NC[C@H](Nc1cncc(-c2ccc3[nH]nc(C)c3c2)c1)c1ccccc1` [Example 53, 2-Methoxy-ethanesulfonic acid {(R)-2-[5-(3-methyl-1H-indazol-5-yl)-pyridin-3-ylamino]-2-phenyl-ethyl}-amide] was 1.7 nM.
The compound `Cc1n[nH]c2ccc(-c3cncc(N[C@@H](CNC(=O)CO)c4ccccc4)c3)cc12` [Example 54, 2-Hydroxy-N-{(R)-2-[5-(3-methyl-1H-indazol-5-yl)-pyridin-3-ylamino]-2-phenyl-ethyl}-acetamide] came in with a concentration for half-maximal inhibition (IC50) in experiment [1] of 1.2 nM.
In experiment [1], `COCCNC[C@H](Nc1cncc(-c2ccc3[nH]nc(C)c3c2)c1)c1ccccc1` [Example 55, (R)-N^2-(2-Methoxy-ethyl)-N^1-[5-(3-methyl-1H-indazol-5-yl)-pyridin-3-yl]-1-phenyl-ethane-1,2-diamine] gave an IC50 of 9.5 nM. This IC50 is about 7.9-fold higher than that of the compound before.
In experiment [1], `Cc1n[nH]c2ccc(-c3cncc(N[C@@H](CNCCO)c4ccccc4)c3)cc12` [Example 56, 2-{(R)-2-[5-(3-Methyl-1H-indazol-5-yl)-pyridin-3-ylamino]-2-phenyl-ethylamino}-ethanol] had an IC50 of 5 nM.
With `Cc1n[nH]c2ccc(-c3cncc(N[C@@H](CNC(=O)C4CCCCC4)c4ccccc4)c3)cc12` [Example 57, Cyclohexanecarboxylic acid {(R)-2-[5-(3-methyl-1H-indazol-5-yl)-pyridin-3-ylamino]-2-phenyl-ethyl}-amide], the IC50 in experiment [1] is 5.3 nM.
On the same count and under the same terms, for `Cc1n[nH]c2ccc(-c3cncc(N[C@@H](CNC(=O)c4ccccc4)c4ccccc4)c3)cc12` [Example 58, N-{(R)-2-[5-(3-Methyl-1H-indazol-5-yl)-pyridin-3-ylamino]-2-phenyl-ethyl}-benzamide] the value was 6 nM; for `NC(=O)[C@H](Nc1cncc(-c2ccc3[nH]nc(Cl)c3c2)c1)c1ccccc1` [Example 59, (R)-2-[5-(3-Chloro-1H-indazol-5-yl)-pyridin-3-ylamino]-2-phenyl-acetamide], 2.3 nM.
Still for that read-out and setting: for `NC(=O)[C@@H](Nc1cncc(-c2ccc3[nH]nc(Cl)c3c2)c1)c1ccccc1` [Example 60, (S)-2-[5-(3-Chloro-1H-indazol-5-yl)-pyridin-3-ylamino]-2-phenyl-acetamide] the value was 9.2 nM.
